Laboratory results from ChEMBL document CHEMBL6182835, “Distinctive roles of aquaporins and novel therapeutic opportunities against cancer” (RSC Med Chem, 2025).
Each block holds one compound with its values, some of them ahead of it.

What was measured:
Aquaporin-4 [1] = target: T1, Aquaporin-4 (Homo sapiens, UniProt P55087); assay: Inhibition of AQP4-M23 (unknown origin)
Aquaporin-4 [2] = target: T1, Aquaporin-4; assay: Inhibition of AQP4-M23 (unknown origin) relative to control; conditions: concentration not given here
[3] = target: T2, Aquaporin-1 (Homo sapiens) (UniProt P29972); assay: Inhibition of AQP1 (unknown origin) at 20 uM relative to control
T2 sequence (whole entry): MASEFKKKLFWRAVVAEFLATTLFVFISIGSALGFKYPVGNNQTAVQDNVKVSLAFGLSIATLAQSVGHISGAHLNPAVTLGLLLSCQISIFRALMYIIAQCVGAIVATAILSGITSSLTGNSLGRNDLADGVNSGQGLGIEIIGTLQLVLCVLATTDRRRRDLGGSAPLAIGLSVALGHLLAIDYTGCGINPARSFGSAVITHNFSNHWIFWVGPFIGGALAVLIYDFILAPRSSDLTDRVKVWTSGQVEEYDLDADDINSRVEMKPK

[4] = Permeability of compound; assay type: ADME; conditions: not told; read-out: permeability
[5] = target: T3, Aquaporin-9 (Homo sapiens) (UniProt O43315); assay: Inhibition of AQP9 (unknown origin) expressed in xenopus laevis oocytes at 100 uM relative to control; assay type: cell-based; conditions: Oocyte
T3 sequence (whole entry): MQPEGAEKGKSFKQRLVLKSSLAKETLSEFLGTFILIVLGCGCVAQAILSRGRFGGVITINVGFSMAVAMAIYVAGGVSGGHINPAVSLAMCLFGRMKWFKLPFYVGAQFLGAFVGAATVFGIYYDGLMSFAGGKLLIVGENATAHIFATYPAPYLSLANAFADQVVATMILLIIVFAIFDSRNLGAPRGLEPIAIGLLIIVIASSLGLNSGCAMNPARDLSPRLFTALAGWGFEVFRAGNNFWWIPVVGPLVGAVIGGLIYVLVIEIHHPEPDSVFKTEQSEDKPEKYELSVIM

Aquaporin-3 [6] = target: T4, Aquaporin-3 (Homo sapiens, UniProt Q92482); assay: Inhibition of AQP3 (unknown origin)
T4 sequence (Q92482 whole entry): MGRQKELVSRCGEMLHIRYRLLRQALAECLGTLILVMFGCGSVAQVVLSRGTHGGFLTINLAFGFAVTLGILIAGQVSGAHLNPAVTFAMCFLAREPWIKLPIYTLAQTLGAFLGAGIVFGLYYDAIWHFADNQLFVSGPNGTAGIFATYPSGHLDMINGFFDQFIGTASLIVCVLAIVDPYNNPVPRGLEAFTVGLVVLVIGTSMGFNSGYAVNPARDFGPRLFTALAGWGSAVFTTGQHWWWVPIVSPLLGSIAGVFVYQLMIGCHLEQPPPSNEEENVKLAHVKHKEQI

Aquaporin-1 = target: T5, Aquaporin-1 (Homo sapiens, UniProt P29972); assay: Binding affinity to AQP1 (unknown origin) expressed in HEK cells assessed as dissociation constant; assay type: cell-based
T5 sequence (P29972 whole entry): T2 sequence (whole entry)

Aquaporin-9 = target: T6, Aquaporin-9 (Mus musculus, UniProt Q9JJJ3); assay: Inhibition of mouse AQP9
T6 sequence (Q9JJJ3 whole entry): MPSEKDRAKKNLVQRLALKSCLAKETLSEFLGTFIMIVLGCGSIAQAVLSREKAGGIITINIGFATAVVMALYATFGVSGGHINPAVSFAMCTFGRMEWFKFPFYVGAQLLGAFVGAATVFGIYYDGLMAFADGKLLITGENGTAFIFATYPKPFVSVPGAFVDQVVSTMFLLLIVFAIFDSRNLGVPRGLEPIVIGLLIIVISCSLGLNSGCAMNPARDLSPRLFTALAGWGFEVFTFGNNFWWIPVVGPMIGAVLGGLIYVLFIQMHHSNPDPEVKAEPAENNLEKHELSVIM

Aquaporin-3 [7] = target: T4, Aquaporin-3; assay: Inhibition of AQP3 channel in human erythrocyte assessed as inhibition of glycerol permeability; assay type: cell-based
Aquaporin-3 [8] = target: T7, Aquaporin-3 (Mus musculus, UniProt Q8R2N1); assay: Inhibition of mouse AQP3
T7 sequence (Q8R2N1 whole entry): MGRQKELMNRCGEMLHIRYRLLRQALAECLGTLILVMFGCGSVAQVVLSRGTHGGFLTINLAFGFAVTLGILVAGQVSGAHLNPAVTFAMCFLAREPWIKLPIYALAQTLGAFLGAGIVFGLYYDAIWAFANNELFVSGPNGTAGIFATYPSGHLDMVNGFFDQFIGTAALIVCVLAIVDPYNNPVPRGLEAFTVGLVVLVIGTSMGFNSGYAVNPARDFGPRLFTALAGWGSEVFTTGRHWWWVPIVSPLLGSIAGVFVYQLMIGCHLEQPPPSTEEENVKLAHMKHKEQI

Aquaporin-3 [9] = target: T4, Aquaporin-3; assay: Inhibition of human AQP3 expressed in CHO cells; assay type: cell-based

T1 sequence (P55087 whole entry): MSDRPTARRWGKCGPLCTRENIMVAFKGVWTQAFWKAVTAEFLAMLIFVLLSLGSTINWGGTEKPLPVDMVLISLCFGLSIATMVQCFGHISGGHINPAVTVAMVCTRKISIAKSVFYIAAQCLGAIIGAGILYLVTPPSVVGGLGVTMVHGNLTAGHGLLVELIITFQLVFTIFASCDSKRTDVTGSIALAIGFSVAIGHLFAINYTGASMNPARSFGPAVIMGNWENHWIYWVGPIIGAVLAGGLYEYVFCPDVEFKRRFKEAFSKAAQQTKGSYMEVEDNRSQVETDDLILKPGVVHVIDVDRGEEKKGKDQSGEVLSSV

SMILES: O=C(CCc1ccc(O)cc1)c1c(O)cc(O)cc1O [PHLORETIN]
Papp [4]: ~2.8 ×10⁻⁶ cm/s | inhibition [5]: 86%

SMILES: Cc1ccc(CC2(OCCN(C)C)CCC(C(C)(C)C)CC2)cc1 (stereo not drawn)
IC50 (Aquaporin-3 [6]): 27 µM

Now from value to compound:

IC50 (Aquaporin-4 [1]): 3 µM | inhibition (Aquaporin-4 [2]): 73% | inhibition [3]: 56%
SMILES: O=C(Nc1nncs1)c1cccnc1

Kd (Aquaporin-1): 174 µM
SMILES: CC(=O)Nc1nnc(S(N)(=O)=O)s1 [ACETAZOLAMIDE]

IC50 (Aquaporin-9): 1.1 µM | IC50 (Aquaporin-3 [7]): ~0.6 µM | IC50 (Aquaporin-3 [8]): 0.7 µM | IC50 (Aquaporin-3 [9]): 0.2 µM
SMILES: CCOC(=O)c1ccc(NC(=O)NCc2ccc(-n3cccn3)cc2)cc1

IC50 (Aquaporin-3 [7]): ~0.2 µM | IC50 (Aquaporin-3 [9]): ~0.1 µM
SMILES: O=C(Nc1csc([N+](=O)[O-])c1)Nc1c(Cl)cccc1Cl
